Assay [1] addresses Disintegrin and metalloproteinase domain-containing protein 17 (Homo sapiens, UniProt P78536). As to the kind of experiment: Inhibition of TACE by FRET assay.
Assay [2] addresses Disintegrin and metalloproteinase domain-containing protein 17 (Mus musculus, UniProt Q9Z0F8). As to the kind of experiment: Inhibition of TACE in mouse Raw264.7 cells assessed as inhibition of LPS-induced TNFalpha production treated 1 hr before LPS challenge measured 4 hrs post LPS challenge. Type of assay: cell-based.
Assay [3] addresses T1, Interstitial collagenase (Homo sapiens, UniProt P03956).
T1 sequence (P03956 whole entry): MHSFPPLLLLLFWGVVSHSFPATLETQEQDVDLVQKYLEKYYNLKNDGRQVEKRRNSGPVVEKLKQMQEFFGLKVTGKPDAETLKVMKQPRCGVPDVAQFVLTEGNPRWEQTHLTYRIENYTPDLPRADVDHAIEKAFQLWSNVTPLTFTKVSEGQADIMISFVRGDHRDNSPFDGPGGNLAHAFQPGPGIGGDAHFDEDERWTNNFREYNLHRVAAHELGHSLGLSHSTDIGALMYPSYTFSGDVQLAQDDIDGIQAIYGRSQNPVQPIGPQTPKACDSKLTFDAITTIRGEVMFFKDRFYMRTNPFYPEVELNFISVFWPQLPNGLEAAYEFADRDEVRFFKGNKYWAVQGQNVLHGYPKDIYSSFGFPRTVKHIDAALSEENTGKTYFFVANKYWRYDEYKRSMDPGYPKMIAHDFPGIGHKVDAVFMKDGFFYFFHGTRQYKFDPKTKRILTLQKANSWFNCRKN
As to the kind of experiment: Inhibition of MMP1 by FRET assay.

In assay [4] the target is Matrix metalloproteinase-14 (Homo sapiens, UniProt P50281). As to the kind of experiment: Inhibition of MMP14 by […] assay.
The target of assay [5] is Collagenase 3 (Homo sapiens, UniProt P45452). Nature of the assay: Inhibition of MMP13 by […] assay.
The target in assay [6] is 72 kDa type IV collagenase (Homo sapiens, UniProt P08253). As to the kind of experiment: Inhibition of MMP2 by […] assay.
Sequence of 72 kDa type IV collagenase (P08253 whole entry): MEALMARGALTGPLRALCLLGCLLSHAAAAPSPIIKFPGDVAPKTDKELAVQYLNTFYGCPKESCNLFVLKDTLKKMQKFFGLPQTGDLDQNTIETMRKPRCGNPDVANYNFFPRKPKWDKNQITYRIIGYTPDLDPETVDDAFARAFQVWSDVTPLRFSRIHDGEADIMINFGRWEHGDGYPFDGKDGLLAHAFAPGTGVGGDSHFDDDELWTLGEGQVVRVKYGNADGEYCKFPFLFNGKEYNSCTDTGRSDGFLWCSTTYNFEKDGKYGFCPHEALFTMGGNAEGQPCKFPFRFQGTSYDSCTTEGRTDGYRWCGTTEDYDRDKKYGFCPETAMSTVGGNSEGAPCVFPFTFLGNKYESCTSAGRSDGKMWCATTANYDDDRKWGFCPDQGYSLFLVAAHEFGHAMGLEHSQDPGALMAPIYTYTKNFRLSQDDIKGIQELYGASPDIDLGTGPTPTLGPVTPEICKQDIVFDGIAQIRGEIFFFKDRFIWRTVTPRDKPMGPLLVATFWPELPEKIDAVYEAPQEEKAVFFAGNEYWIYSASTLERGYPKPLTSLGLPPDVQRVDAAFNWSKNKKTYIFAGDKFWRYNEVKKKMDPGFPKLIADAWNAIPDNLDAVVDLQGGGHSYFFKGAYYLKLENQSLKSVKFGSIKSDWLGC

In general, IC50 refers to the concentration that gives 50% inhibition.

Sequence of Disintegrin and metalloproteinase domain-containing protein 17 (Mus musculus, UniProt Q9Z0F8) (Q9Z0F8 whole entry, the tested form may be a part): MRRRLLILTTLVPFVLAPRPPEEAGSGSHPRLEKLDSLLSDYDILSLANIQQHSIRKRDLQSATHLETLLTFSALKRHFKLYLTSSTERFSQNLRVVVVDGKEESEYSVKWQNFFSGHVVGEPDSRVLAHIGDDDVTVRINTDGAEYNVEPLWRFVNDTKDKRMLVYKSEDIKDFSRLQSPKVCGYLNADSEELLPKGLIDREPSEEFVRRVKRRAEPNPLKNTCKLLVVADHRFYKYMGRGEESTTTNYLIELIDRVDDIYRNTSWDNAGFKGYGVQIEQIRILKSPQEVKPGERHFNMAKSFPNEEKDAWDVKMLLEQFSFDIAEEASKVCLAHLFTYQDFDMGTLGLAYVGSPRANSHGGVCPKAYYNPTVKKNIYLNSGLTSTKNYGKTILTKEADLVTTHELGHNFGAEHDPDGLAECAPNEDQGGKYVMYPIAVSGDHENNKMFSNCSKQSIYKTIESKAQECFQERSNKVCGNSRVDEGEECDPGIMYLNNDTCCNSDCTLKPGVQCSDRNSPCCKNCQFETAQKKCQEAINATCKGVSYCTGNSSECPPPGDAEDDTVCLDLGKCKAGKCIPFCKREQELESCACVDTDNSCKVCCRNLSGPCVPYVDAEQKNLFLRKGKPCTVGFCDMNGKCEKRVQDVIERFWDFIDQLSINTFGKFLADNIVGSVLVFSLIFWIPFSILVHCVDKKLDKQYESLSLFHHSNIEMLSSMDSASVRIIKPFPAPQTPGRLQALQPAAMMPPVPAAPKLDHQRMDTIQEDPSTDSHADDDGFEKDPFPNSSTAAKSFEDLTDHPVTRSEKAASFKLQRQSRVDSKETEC
Sequence of Disintegrin and metalloproteinase domain-containing protein 17 (Homo sapiens, UniProt P78536) (P78536 whole entry, the tested form may be a part): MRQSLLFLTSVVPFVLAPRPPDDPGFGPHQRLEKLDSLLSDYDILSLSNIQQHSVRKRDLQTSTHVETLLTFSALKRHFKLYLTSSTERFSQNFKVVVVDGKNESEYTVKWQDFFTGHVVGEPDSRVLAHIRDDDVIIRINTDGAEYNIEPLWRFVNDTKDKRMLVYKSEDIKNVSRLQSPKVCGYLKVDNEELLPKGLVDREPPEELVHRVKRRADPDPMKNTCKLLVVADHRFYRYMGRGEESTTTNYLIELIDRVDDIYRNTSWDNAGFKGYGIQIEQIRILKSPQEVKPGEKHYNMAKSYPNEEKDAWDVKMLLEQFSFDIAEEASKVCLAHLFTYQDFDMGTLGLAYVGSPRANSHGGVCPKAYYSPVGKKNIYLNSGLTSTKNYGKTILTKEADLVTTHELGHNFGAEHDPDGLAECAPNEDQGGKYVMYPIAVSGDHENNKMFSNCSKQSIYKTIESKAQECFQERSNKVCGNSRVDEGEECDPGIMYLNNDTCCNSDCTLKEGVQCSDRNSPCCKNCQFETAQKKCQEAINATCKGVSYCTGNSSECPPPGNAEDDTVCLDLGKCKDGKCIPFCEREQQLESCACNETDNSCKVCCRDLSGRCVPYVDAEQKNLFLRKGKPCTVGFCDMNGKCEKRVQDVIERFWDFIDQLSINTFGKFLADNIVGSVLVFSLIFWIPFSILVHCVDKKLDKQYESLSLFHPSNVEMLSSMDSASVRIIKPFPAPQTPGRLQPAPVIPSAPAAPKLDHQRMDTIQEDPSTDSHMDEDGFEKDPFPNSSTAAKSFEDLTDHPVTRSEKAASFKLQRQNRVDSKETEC

In turn, `CC#CCOc1ccc(S(=O)(=O)N[C@H](Cc2cn(C)c3ccccc23)C(=O)O)cc1` displayed an IC50 in assay [1] of 1430 nM. Take `CC#CCOc1ccc(S(=O)(=O)N[C@H](Cc2cn(Cc3ccc(OC)cc3)c3ccccc23)C(=O)O)cc1`: the IC50 in assay [2] was over 100000 nM; in assay [3] it was over 50000 nM. Consider `CC#CCOc1ccc(S(=O)(=O)NC(Cc2c(C)n(Cc3cccc(C#N)c3)c3ccc(OC)cc23)C(=O)O)cc1` (configuration not stated), for which 410 nM corresponded to half-maximal inhibition in assay [1] (IC50). Still for that read-out and setting: under `CC#CCOc1ccc(S(=O)(=O)N[C@H](Cc2cn(CC3CCC3)c3ccccc23)C(=O)O)cc1` stands 1710 nM. As for `CC#CCOc1ccc(S(=O)(=O)N[C@H](Cc2c[nH]c3ccc(C)cc23)C(=O)O)cc1`, the half-maximal inhibitory concentration (IC50) is 6820 nM in assay [4]; 1810 nM in assay [5]; 7800 nM in assay [2]; 270 nM in assay [6]; over 50000 nM in assay [3]. As to `CC#CCOc1ccc(S(=O)(=O)NC(Cc2cn(Cc3ccc4c(c3)OCO4)c3ccc(OC)cc23)C(=O)O)cc1` (racemic), 1500 nM corresponded to half-maximal inhibition in assay [1] (IC50). Still for that read-out and setting: with `CC#CCOc1ccc(S(=O)(=O)NC(Cc2c[nH]c3cc(C)ccc23)C(=O)O)cc1` (racemic) the figure was 1570 nM; with `CC#CCOc1ccc(S(=O)(=O)NC(Cc2c[nH]c3ccc(Br)cc23)C(=O)O)cc1` (racemic), 630 nM. As for `CC#CCOc1ccc(S(=O)(=O)NC(Cc2cn(C)c3ccc(C(=O)O)cc23)C(=O)O)cc1` (racemic), in assay [1], the IC50 is over 100000 nM.

Turning to `CC#CCOc1ccc(S(=O)(=O)NC(Cc2cn(CC(C)C)c3ccc(OC)cc23)C(=O)O)cc1` (racemic), the midpoint of inhibition in assay [1], the IC50, lay at 1230 nM. On the same count and under the same terms, under `CC#CCOc1ccc(S(=O)(=O)NC(Cc2c(C)n(CC(C)C)c3ccc(Cl)cc23)C(=O)O)cc1` (racemic) stands 300 nM.

In assay [1], `CC#CCOc1ccc(S(=O)(=O)NC(Cc2cn(CC)c3ccc(C(=O)O)cc23)C(=O)O)cc1` (racemic) yielded an IC50 of over 100000 nM. Same read-out and setting: under `CC#CCOc1ccc(S(=O)(=O)NC(Cc2c(C)n(Cc3ccc(Cl)cc3)c3ccc(OC)cc23)C(=O)O)cc1` (racemic) stands 290 nM. The same measure, in the same setting: under `CC#CCOc1ccc(S(=O)(=O)NC(Cc2c(C)n(Cc3cccc(F)c3)c3ccc(OC)cc23)C(=O)O)cc1` (racemic) stands 340 nM. As for `CC#CCOc1ccc(S(=O)(=O)NC(Cc2c(C)n(Cc3ccc(C#N)cc3)c3ccc(OC)cc23)C(=O)O)cc1` (racemic), in assay [1], it took 470 nM to reach half-maximal inhibition (IC50). In the case of `CC#CCOc1ccc(S(=O)(=O)NC(Cc2c(C)n(Cc3ccccc3F)c3ccc(OC)cc23)C(=O)O)cc1` (racemic), the half-inhibitory concentration (IC50) in assay [1] is 300 nM. The same measure, in the same setting: with `CC#CCOc1ccc(S(=O)(=O)NC(Cc2c(C)n(Cc3ccc(OC)cc3)c3ccc(Cl)cc23)C(=O)O)cc1` (racemic) the figure was 190 nM; with `CC#CCOc1ccc(S(=O)(=O)NC(Cc2c(C)n(Cc3ccccc3)c3ccc(OC)cc23)C(=O)O)cc1` (racemic), 250 nM; with `CC#CCOc1ccc(S(=O)(=O)NC(Cc2c(C)n(Cc3cccc(OC)c3)c3ccc(OC)cc23)C(=O)O)cc1` (racemic), 280 nM.

For `CC#CCOc1ccc(S(=O)(=O)NC(Cc2cn(Cc3ccccc3F)c3ccc(OC)cc23)C(=O)O)cc1` (racemic), in assay [1], half-maximal inhibition (IC50) required 2240 nM. `CC#CCOc1ccc(S(=O)(=O)NC(Cc2c[nH]c3ccc(O)cc23)C(=O)O)cc1` (racemic) gave a half-inhibitory concentration (IC50) in assay [1] of 1610 nM. The same measure, in the same setting: with `CC#CCOc1ccc(S(=O)(=O)NC(Cc2c[nH]c3ccc(F)cc23)C(=O)O)cc1` (racemic) the figure was 1560 nM; with `CC#CCOc1ccc(S(=O)(=O)NC(Cc2c[nH]c3cc(F)ccc23)C(=O)O)cc1` (racemic), 2960 nM. On the same count and under the same terms, under `CC#CCOc1ccc(S(=O)(=O)NC(Cc2c(C)n(Cc3ccc(F)cc3)c3ccc(OC)cc23)C(=O)O)cc1` (racemic) stands 320 nM; under `CC#CCOc1ccc(S(=O)(=O)NC(Cc2cn(Cc3ccccc3)c3ccc(C(=O)O)cc23)C(=O)O)cc1` (racemic), over 100000 nM. For the molecule `CC#CCOc1ccc(S(=O)(=O)NC(Cc2c(C)n(Cc3ccc(Cl)cc3)c3ccc(Cl)cc23)C(=O)O)cc1` (racemic), the IC50 in assay [1] was found to be 330 nM. Take `CC#CCOc1ccc(S(=O)(=O)NC(Cc2cn(Cc3ccc(OC)cc3)c3ccc(C)cc23)C(=O)O)cc1` (racemic): in assay [1], the concentration for half-maximal inhibition (IC50) is 890 nM. Regarding `CC#CCOc1ccc(S(=O)(=O)NC(Cc2c(C)n(C)c3ccc(OC)cc23)C(=O)O)cc1` (racemic), it took 900 nM to reach half-maximal inhibition in assay [1] (IC50). On to `CC#CCOc1ccc(S(=O)(=O)NC(Cc2cn(Cc3cccc(OC)c3)c3ccc(OC)cc23)C(=O)O)cc1` (racemic), for which the IC50 in assay [1] was 2240 nM. For `CC#CCOc1ccc(S(=O)(=O)NC(Cc2c[nH]c3ccc(OC)cc23)C(=O)O)cc1` (single isomer, unassigned; enantiomer 1), in assay [1], inhibition was half-maximal at 10100 nM (IC50).

Consider `CC#CCOc1ccc(S(=O)(=O)NC(Cc2c[nH]c3ccc(OCc4ccccc4)cc23)C(=O)O)cc1` (single isomer, unassigned; enantiomer 2), for which the IC50 in assay [4] is 19700 nM; in assay [5], 4440 nM; in assay [6], 3270 nM; in assay [1] it was 370 nM; in assay [3] it was over 50000 nM. Regarding `CC#CCOc1ccc(S(=O)(=O)NC(Cc2c[nH]c3ccc(OC)cc23)C(=O)O)cc1` (single isomer, unassigned; enantiomer 2), the IC50 was 20700 nM in assay [4]; 13600 nM in assay [5]; 57000 nM in assay [2]; 1270 nM in assay [6]; 140 nM in assay [1]; over 50000 nM in assay [3].

In the case of `CC#CCOc1ccc(S(=O)(=O)NC(Cc2c[nH]c3ccc(OCc4ccccc4)cc23)C(=O)O)cc1` (stereo in doubt; 11h), the IC50 in assay [1] is 6980 nM.

The values above are taken from ChEMBL document CHEMBL1137760, “Synthesis and activity of tryptophan sulfonamide derivatives as novel non-hydroxamate TNF-alpha converting enzyme (TACE) inhibitors” (Bioorg Med Chem, 2009).
